Results on two compounds are retold here after patent publication US11980602B2, “Cannabinoid prodrug compounds” (Firstlight Pharmaceuticals LLC, priority 2019, dated 2024).

For data set [1] the following is noted: low, dose dependent; cited from earlier work.
Data set [2] relates to HPAF-II (pancreatic) tumor cells. Description: MTT cell viability assay with HPAF-II pancreatic tumor cells. It is filed as cell-based, human. How it is done:
MTT Cell Viability Assay with HPAF-II (Pancreatic) Tumor Cells—
10 mM of COMPOUND A stock solution was made by dissolving the 8.2 mg of powder form of COMPOUND A in 1.468 mL of DMSO to form the stock solution. The stock solution was aliquoted to 0.6 mL microcentrifuge tubes with 20 μl of solution in each microcentrifuge tube.
Pancreatic cancer cell line HPAF-II was seeded in a 96-well plate with 5000 cells/well and incubated overnight at 37° C. The next day, cells were treated triplicate by removing cell media and replaced with fresh media containing COMPOUND A alone at increasing concentrations (10 μM, 20 μM, 20 μM, 50 μM, 75 μM, 100 μM 125 μM 150 μM, 175 μM 200 μM) as well as the combination of the 10 μM of COMPOUND A and Gemcitabine at increasing concentrations (0 μM, 0.01 μM, 0.05 μM, 0.1 μM, 0.5 μM, 1 μM, 5 μM, 10 μM). Drug vehicle (DMSO, Sigma) was used as a control for the treatment. Cells were then left to grow in the presence of the drugs for the following 72 hours.
After 72 hours, the media was discarded and the cells were incubated with MTT (3-(4,5-Dimethylthiazol-2-yl)-2,5-diphenyltetrazolim bromide) solution (5 mg/ml stock) at working concentration of 0.5 mg/ml in fresh cell growth media for 2 hours at 37° C. The reaction was stopped when the majority of the cells was stained. MTT solution was then aspirated and the plate was left to dry for several hour. Stained cells were then resuspended in 70 μl of DMSO and mixed well. The absorbance was read with the use of a plate reading spectrophotometer at the 570 nm. The CompuSyn data for the drug combination of COMPOUND A and Gemcitabine in each cell line was generated and analysed using the CompuSyn software which was set up by […] and published by ComboSyn, Inc.

In data set [3] the test system is phospho-ERK. Kind of data set: Western blot of ERK phosphorylation in HPAF-11 pancreatic tumor cells. The format is cell-based, human. The note with it: HPAF-11 cells, 48 hours, DMEM 10% FBS, western blot (FIG. 3). The protocol: Cells were treated for 48 hours with indicated concentrations of COMPOUND A in DMEM containing 10% FBS. Phosphorylation of ERK was assessed by western blot using antibodies that detect total and phospho-ERK. Actin detection was used as a loading control for total lysate protein.

In data set [4] the test system is MKN1 (gastric) tumor cells. Description: CELLTITER-GLO cell viability assay, MKN1. It is filed as cell-based, human. The protocol: (§1) CELLTITER-GLO® Cell Viability Assay (a homogeneous method of determining the number of viable cells in culture based on quantitation of the ATP present, an indicator of metabolically active cells)
(§2) MKN1 (gastric), PC3 (prostate), NCIH727 (lung), and HCT116 (colorectal) tumor cell lines; Control=0.1% DMSO
(§3) To prepare 10 mM FL41 stock from powder dissolve 4.1 mg of FL41 powder into 0.74 ml DMSO-aliquot and store at −20 C until use DMSO-stock from Sigma or other suitable vendor-must be reagent or ACS grade or better.
(§4) Place 5000 cells per well (200 ul) in duplicate in their preferred media as shown in 96-well plate diagram immediately below. Reduce the final FBS (serum) concentration to 5% before adding cells to media. Incubate cells overnight and then remove old media carefully and add fresh media with 5% FBS and then either add DMSO alone, COMPOUND A alone or in combination with GEM (gemcitabine) in wells where noted at the final concentrations noted. Incubate the cells at 37 C in CO2 incubator for an additional 72 hours in presence of compounds. At the end of the 72-hour period add Promega Titerglo reagent to the wells and then measure luminescence to assess relative cell number.
In general terms: In ATP-based viability assays light output follows the ATP content of the culture.

Data set [5] concerns HCT116 (colorectal) tumor cells. Description: CELLTITER-GLO cell viability assay, HCT116. The note with it: COMPOUND A alone, 72 hours, 5% FBS (FIG. 6). The format is cell-based, human. How it is done: as §1, §2, §3, §4
Data set [6] relates to NCIH727 (lung) tumor cells. Description: CELLTITER-GLO cell viability assay, H727. It is filed as cell-based, human. The protocol: as §1, §2, §3, §4
The test system of data set [7] is PC3 (prostate) tumor cells. Description: CELLTITER-GLO cell viability assay, PC3. The note with it: COMPOUND A alone, 72 hours, 5% FBS. The format is cell-based, human. The protocol: as §1, §2, §3, §4

SMILES strings stand for the structures.

As for `C=C(C)[C@@H]1CCC(C)=C[C@H]1c1c(O)cc(CCCCC)cc1O` [CBD, Cannabidiol], the “oral and oromucosal bioavailability” value in data set [1] is listed as “about 35%”.

For `C=C(C)[C@@H]1CCC(C)=C[C@H]1c1c(O)cc(CCCCC)cc1OC(=O)N[C@@H](C)C(=O)N[C@@H](CCC(=O)O)C(=O)O` [COMPOUND A], the “growth of HPAFII (pancreatic) tumor cell line as compared to control” value in data set [2] (COMPOUND A alone) is reported as “inhibit the growth”. In data set [2] (HPAF-II, 10 μM COMPOUND A combined with gemcitabine, 72 hours (FIG. 2)), the “increase in rate of the cell kill vs Compound A or gemcitabine alone” value is “at least 10%”. In addition, the “kill of the pancreatic tumor cells” value in data set [2] (HPAF-II, 50 μM, 72 hours, MTT (FIG. 1)) is at least 50%. The “kill of the tumor cells” value in data set [2] (HPAF-II, about 175 μM, 72 hours, MTT (FIG. 1)) is given as “more than 80%”. For the same compound, in data set [3], the “phospho-ERK levels in tumor cells as compared to control” value is “effectively decrease phospho-ERK levels”. Further, the “growth of MKN1 (gastric) tumor cell line as compared to control” value in data set [4] (COMPOUND A alone, 72 hours, 5% FBS (FIG. 4)) was “inhibit the growth”. Further, the “effect on gemcitabine growth inhibition of human mkn1 gastric tumor cells” value in data set [4] (combination with gemcitabine, 72 hours (FIG. 5)) is reported as “synergistic impact”. For the same compound, the “growth of HCT116 (colorectal) tumor cell line as compared to control” value in data set [5] is reported as “inhibit the growth”. Further, the “growth of H727 (lung) tumor cell line as compared to control” value in data set [6] (COMPOUND A alone, 72 hours, 5% FBS (FIG. 7)) is “inhibit the growth”. The “effect on gemcitabine growth inhibition of human h727 lung tumor cells” value in data set [6] (combination with gemcitabine, 72 hours (FIG. 8)) is listed as “potentiates”. Moreover, the “growth of PC3 (prostate) tumor cell line as compared to control” value in data set [7] is “inhibit the growth”.
